In one assay the target is MAPK7 (Homo sapiens, UniProt Q13164). The experiment in a line: MAPK7 Western blot protein degradation assay in U-87 MG cells. It counts as cell-based. More on the design: U-87 MG human glioblastoma cells, which express MAPK7; endogenous in cells; host or cells: U-87 MG. The note with it: 48 hr. As for the experimental part: U-87 MG human glioblastoma cells were seeded in 6- or 12-well tissue culture plates, and after 1 hr, test compounds were added at various concentrations and incubated at 37° C./5% CO2 for 48 hr. Cells were then washed with cold PBS, aspirated and cold RIPA buffer containing a protease/phosphatase inhibitor cocktail was added to lyse cells. After centrifugation, the total protein concentrations of cell lysates were determined using the BCA protein assay. Samples were normalized for equivalent protein concentrations, 5×SDS-PAGE loading buffer added and denatured at 100° C. for 10 min. 20 μl of each sample/well was loaded on a SDS-PAGE gel and electrophoresed for 20 min at 80 V, then 120 V for 1.5 hr. Gels were then electroblotted to nitrocellulose membranes using a wet-transfer method at 250 mA for 2.5 hr. Membranes were incubated with blocking buffer for 1 hr and washed 3 times with TBST for 5 min. Membranes were then incubated with anti-MAPK7 (anti-ERK5; Cell Signaling Technology, #12950) and anti-3-Actin (Cell Signaling Technology, #3700) monoclonal antibodies diluted in blocking buffer at 4° C. overnight per the manufacturer's recommendations. After washing 3 times, blots were incubated with appropriately labeled secondary antibodies for 1 hr at room temperature and washed again. Fluorescence imaging and quantitation was performed using a LI-COR Odyssey. Results was analyzed using GraphPad Prism 7 software.

Another assay deals with ERBB2. The experiment in a line: ERBB2 (HER2) flow cytometry protein degradation assay in BT-474 cells. It counts as cell-based, human. The following applies: DC50, BT-474 cells, 24 hr. As for the experimental part: To analyze total ERBB2 expression by flow cytometry, cells were detached with trypsin, washed, counted and treated with 10 μl/10^6 cells PE-conjugated, anti-ERBB2 monoclonal antibody (R&D Systems, #FAB1129P) for 30 min at 25° C. in dark. Cells were then washed, resuspended in 200 μl 1% paraformaldehyde and analyzed by flow cytometry.
% Inhibition=100−(D−B)/(S−B)*100%. • S: Fluorescence intensity of cells with antibody • D: Fluorescence intensity of compound-treated cells with antibody • B: Fluorescence intensity of cells without antibody
A general note: Flow cytometry measures light scatter and fluorescence of single cells or particles in a stream.

The target in the next assay is T1, HSP90α protein (Homo sapiens, UniProt P07900).
T1 construct: purchased BPS Bioscience #50298
Put plainly: HSP90α-binding FP (BODIPY) assay. The note with it: FP competition with BODIPY-labeled RNK04010. A digest of the protocol:
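Fluorescence polarization measured competition with N-terminal human HSP90α, using either FITC-geldanamycin or BODIPY-labelled triazolone RNK04010 as tracer (5 nM final each). Compounds were tested in 2.5-fold dilutions from 20 μM to 5.2 nM, with incubation at 25 °C for 120 min (FITC) or 300 min (BODIPY).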

The subject of assay [1] is U-87 MG human glioblastoma. Put plainly: U87 MG CCK-8 proliferation assay. It counts as cell-based. The note with it: Homo sapiens, U-87 MG, 72 h, U-87 MG cells, read-out: U87MG CCK-8. The method, boiled down: (§1)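 Cells grown per ATCC recommendations were treated with 3-fold serial compound dilutions from 20 μM to 1.02 nM. CCK-8 absorbance was converted to % inhibition against DMSO-treated cells, with cell-free medium containing DMSO as the blank.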
On the technique in general: Tetrazolium dyes change colour on reduction, which living cells bring about.

The test system of assay [2] is MV-4-11 human acute myeloid leukemia. The experiment in a line: MV-4-11 CCK-8 proliferation assay. Type of assay: cell-based. The following applies: Homo sapiens, MV4-11; MV-4-11 cells, 72 hr. The method, boiled down: as §1

Molecules are shown by their SMILES.

MAPK7, sequence (Q13164 whole entry): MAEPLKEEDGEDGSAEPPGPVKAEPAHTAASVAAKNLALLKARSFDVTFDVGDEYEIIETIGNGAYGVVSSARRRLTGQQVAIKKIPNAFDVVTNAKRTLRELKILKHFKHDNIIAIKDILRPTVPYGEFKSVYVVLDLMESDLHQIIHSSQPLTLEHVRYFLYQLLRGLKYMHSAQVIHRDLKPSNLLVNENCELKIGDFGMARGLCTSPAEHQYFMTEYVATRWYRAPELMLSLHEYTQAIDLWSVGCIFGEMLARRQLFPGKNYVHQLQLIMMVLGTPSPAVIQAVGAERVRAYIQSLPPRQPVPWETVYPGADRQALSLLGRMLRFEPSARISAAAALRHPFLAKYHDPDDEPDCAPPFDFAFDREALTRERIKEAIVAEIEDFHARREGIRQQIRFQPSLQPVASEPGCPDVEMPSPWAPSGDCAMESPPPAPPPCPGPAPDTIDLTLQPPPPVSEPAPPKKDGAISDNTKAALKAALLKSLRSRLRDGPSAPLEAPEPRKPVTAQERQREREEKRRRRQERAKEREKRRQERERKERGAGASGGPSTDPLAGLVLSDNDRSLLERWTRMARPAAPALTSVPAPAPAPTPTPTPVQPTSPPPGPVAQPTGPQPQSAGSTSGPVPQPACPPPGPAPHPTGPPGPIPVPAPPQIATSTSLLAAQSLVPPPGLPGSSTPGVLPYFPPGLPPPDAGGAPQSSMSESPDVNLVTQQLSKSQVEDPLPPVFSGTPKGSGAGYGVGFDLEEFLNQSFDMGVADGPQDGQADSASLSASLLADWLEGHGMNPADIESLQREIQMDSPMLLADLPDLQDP

One may read the IC50 as the concentration at which inhibition is half-maximal. A high value points to a need for much substance. `CCOc1cc(N2CCC(C(=O)N3CCC(CN4CCN(Cc5ccc(-n6c(C(=O)NCC(F)(F)F)nnc6-c6cc(C)c(O)cc6O)cc5)CC4)CC3)CC2)ccc1Nc1ncc2c(n1)N(C)c1ccccc1C(=O)N2C` [Compound 018, 5-(2,4-dihydroxy-5-methylphenyl)-4-(4-((4-((1-(1-(4-((5,11-dimethyl-6-oxo-6,11-dihydro-5H-benzo[e]pyrimido[5,4-b][1,4]diazepin-2-yl)amino)-3-ethoxyphenyl)piperidine-4-carbonyl)piperidin-4-yl)methyl)piperazin-1-yl)methyl)phenyl)-N-(2,2,2-trifluoroethyl)-4H-1,2,4-triazole-3-carboxamide]: at MAPK7, the “MAPK7 degradation (30 nM)” value is given as “C (< 33% degradation)”, the “MAPK7 degradation (100 nM)” value is reported as “C (< 33% degradation)” and the “MAPK7 degradation (1000 nM)” value is recorded as “A (>66% degradation)”. For the same compound, in the assay with ERBB2, the ERBB2 degradation result was “B (DC50 = 100-1000 nM)”. The same compound had a half-inhibitory concentration (IC50) on HSP90α protein of 0.1 to 1 µM. The EC50 in assay [1] fell in the range of 0.1 to 1 µM. Moreover, in assay [2], the EC50 was < 0.1 µM.

Consider `CCOc1cc(N2CCC(C(=O)N3CCC(CN4CCN(Cc5ccc(-n6c(O)nnc6-c6ccc(O)cc6O)cc5)CC4)CC3)CC2)ccc1Nc1ncc2c(n1)N(C)c1ccccc1C(=O)N2C` [Compound 021, 2-((4-(4-(4-((4-(4-(3-(2,4-dihydroxyphenyl)-5-hydroxy-4H-1,2,4-triazol-4-yl)benzyl)piperazin-1-yl)methyl)piperidine-1-carbonyl)piperidin-1-yl)-2-ethoxyphenyl)amino)-5,11-dimethyl-5,11-dihydro-6H-benzo[e]pyrimido[5,4-b][1,4]diazepin-6-one], for which, on MAPK7, the “MAPK7 degradation (30 nM)” value is reported as “C (< 33% degradation)”, the “MAPK7 degradation (100 nM)” value is “C (< 33% degradation)”, the “MAPK7 degradation (300 nM)” value is “C (< 33% degradation)” and the “MAPK7 degradation (1000 nM)” value is reported as “C (< 33% degradation)”. The IC50 at HSP90α protein lay in the range of 0.1 to 1 µM. In assay [1], the EC50 was > 1 µM. Also, the EC50 in assay [2] was 0.1 to 1 µM.

Regarding `CCOc1cc(N2CCC(C(=O)N3CCC(CN4CCN(Cc5ccc(-n6c(C(=O)NCC(F)(F)F)nnc6-c6cc(CC)c(O)cc6O)cc5)CC4)CC3)CC2)ccc1Nc1ncc2c(n1)N(C)c1ccccc1C(=O)N2C` [Compound 022, 4-(4-((4-((1-(1-(4-((5,11-dimethyl-6-oxo-6,11-dihydro-5H-benzo[e]pyrimido[5,4-b][1,4]diazepin-2-yl)amino)-3-ethoxyphenyl)piperidine-4-carbonyl)piperidin-4-yl)methyl)piperazin-1-yl)methyl)phenyl)-5-(5-ethyl-2,4-dihydroxyphenyl)-N-(2,2,2-trifluoroethyl)-4H-1,2,4-triazole-3-carboxamide], on MAPK7, the “MAPK7 degradation (30 nM)” value was “C (< 33% degradation)”, the “MAPK7 degradation (100 nM)” value is recorded as “C (< 33% degradation)”, the “MAPK7 degradation (300 nM)” value is “B (33-66% degradation)” and the “MAPK7 degradation (1000 nM)” value is “A (>66% degradation)”. In the assay on ERBB2, the ERBB2 degradation entry was “B (DC50 = 100-1000 nM)”. On HSP90α protein, this compound displayed an IC50 of 0.1 to 1 µM. Also, the EC50 in assay [1] is 0.1 to 1 µM. In assay [2], the EC50 is < 0.1 µM.

`CCOc1cc(N2CCC(C(=O)NCc3ccc(-n4c(O)nnc4-c4cc(C(C)C)c(O)cc4O)cc3F)CC2)ccc1Nc1ncc2c(n1)N(C)c1ccccc1C(=O)N2C` [Compound 036, N-(4-(3-(2,4-dihydroxy-5-isopropylphenyl)-5-hydroxy-4H-1,2,4-triazol-4-yl)-2-fluorobenzyl)-1-(4-((5,11-dimethyl-6-oxo-6,11-dihydro-5H-benzo[e]pyrimido[5,4-b][1,4]diazepin-2-yl)amino)-3-ethoxyphenyl)piperidine-4-carboxamide]: at MAPK7, the “MAPK7 degradation (30 nM)” value is on record as “C (< 33% degradation)”, the “MAPK7 degradation (100 nM)” value was “C (< 33% degradation)”, the “MAPK7 degradation (300 nM)” value is recorded as “B (33-66% degradation)” and the “MAPK7 degradation (1000 nM)” value is “A (>66% degradation)”. In the assay on ERBB2, the ERBB2 degradation entry is listed as “B (DC50 = 100-1000 nM)”. The compound further yielded a half-maximal inhibitory concentration (IC50) on HSP90α protein of 0.1 to 1 µM. The EC50 in assay [1] was > 1 µM. Also, in assay [2], the EC50 is < 0.1 µM.

Turning to `CCOc1cc(N2CCC(C(=O)N3CCN(Cc4ccc(-n5c(O)nnc5-c5cc(C(C)C)c(O)cc5O)cc4)CC3)CC2)ccc1Nc1ncc2c(n1)N(C)c1ccccc1C(=O)N2C.Cl` [Compound 043, 2-((4-(4-(4-(4-(3-(2,4-dihydroxy-5-isopropylphenyl)-5-hydroxy-4H-1,2,4-triazol-4-yl)benzyl)piperazine-1-carbonyl)piperidin-1-yl)-2-ethoxyphenyl)amino)-5,11-dimethyl-5,11-dihydro-6H-benzo[e]pyrimido[5,4-b][1,4]diazepin-6-one], on MAPK7, the “MAPK7 degradation (30 nM)” value is “C (< 33% degradation)”, the “MAPK7 degradation (100 nM)” value is “B (33-66% degradation)”, the “MAPK7 degradation (300 nM)” value is “A (>66% degradation)” and the “MAPK7 degradation (1000 nM)” value is “A (>66% degradation)”. For the same compound, the ERBB2 degradation entry in the assay with ERBB2 is on record as “B (DC50 = 100-1000 nM)”.

Consider `CCOc1cc(N2CCC(C(=O)N3CCC(CN4CCN(Cc5ccc(-n6c(C(=O)NC(C)C)nnc6-c6cc(CC)c(O)cc6O)cc5)CC4)CC3)CC2)ccc1Nc1ncc2c(n1)N(S(C)(=O)=O)c1ccccc1C(=O)N2C` [Compound 098, 4-(4-((4-((1-(1-(3-ethoxy-4-((5-methyl-11-(methylsulfonyl)-6-oxo-6,11-dihydro-5H-benzo[e]pyrimido[5,4-b][1,4]diazepin-2-yl)amino)phenyl)piperidine-4-carbonyl)piperidin-4-yl)methyl)piperazin-1-yl)methyl)phenyl)-5-(5-ethyl-2,4-dihydroxyphenyl)-N-isopropyl-4H-1,2,4-triazole-3-carboxamide], for which the ERBB2 degradation result in the assay on ERBB2 is reported as “B (DC50 = 100-1000 nM)”. Besides, the half-inhibitory concentration (IC50) at HSP90α protein was < 0.1 µM. Further, the EC50 in assay [1] and in assay [2] was < 0.1 µM throughout.

Turning to `CCOc1cc(N2CCC(C(=O)N3CCC(CN4CCN(Cc5ccc(-n6c(C(=O)N[C@H](C)C(F)(F)F)nnc6-c6cc(CC)c(O)cc6O)cc5)CC4)CC3)CC2)ccc1Nc1ncc2c(n1)N(S(C)(=O)=O)c1ccccc1C(=O)N2C` [Compound 123, (R)-4-(4-((4-((1-(1-(3-ethoxy-4-((5-methyl-11-(methylsulfonyl)-6-oxo-6,11-dihydro-5H-benzo[e]pyrimido[5,4-b][1,4]diazepin-2-yl)amino)phenyl)piperidine-4-carbonyl)piperidin-4-yl)methyl)piperazin-1-yl)methyl)phenyl)-5-(5-ethyl-2,4-dihydroxyphenyl)-N-(1,1,1-trifluoropropan-2-yl)-4H-1,2,4-triazole-3-carboxamide], in the assay on ERBB2, the ERBB2 degradation entry is given as “B (DC50 = 100-1000 nM)”. The half-maximal inhibitory concentration (IC50) at HSP90α protein was 0.1 to 1 µM. The EC50 is 0.1 to 1 µM in assay [1] and < 0.1 µM in assay [2].

In the case of `CCOc1cc(N2CCC(C(=O)N3CCC(CN4CCN(Cc5ccc(-n6c(C(=O)N[C@@H](C)C(F)(F)F)nnc6-c6cc(CC)c(O)cc6O)cc5)CC4)CC3)CC2)ccc1Nc1ncc2c(n1)N(S(C)(=O)=O)c1ccccc1C(=O)N2C` [Compound 124, (S)-4-(4-((4-((1-(1-(3-ethoxy-4-((5-methyl-11-(methylsulfonyl)-6-oxo-6,11-dihydro-5H-benzo[e]pyrimido[5,4-b][1,4]diazepin-2-yl)amino)phenyl)piperidine-4-carbonyl)piperidin-4-yl)methyl)piperazin-1-yl)methyl)phenyl)-5-(5-ethyl-2,4-dihydroxyphenyl)-N-(1,1,1-trifluoropropan-2-yl)-4H-1,2,4-triazole-3-carboxamide], the ERBB2 degradation result in the assay on ERBB2 is “B (DC50 = 100-1000 nM)”. Further, on HSP90α protein, the IC50 is 0.1 to 1 µM. Besides, the values for the EC50 in assay [1] and in assay [2] were 0.1 to 1 µM and < 0.1 µM, respectively.

These data come from US20240124460A1, “METHODS AND COMPOSITIONS FOR TARGETED PROTEIN DEGRADATION” (Ranok Therapeutics (Hangzhou) Co. Ltd., priority 2020, published 2024).
